Source: US20250064773A1, “TARGETING ERO1 ALPHA WITH AURONE DERIVATIVES” (West Virginia University Board of Governors on behalf of …, priority 2021, published 2025)
Read-outs that look alike come from different tables or passages of the source.

Tested on: PC-9 ERO1α KO clones (CRISPR)
Assay: MTT viability assay, PC-9 ERO1α knockout clones
Assay type: cell-based
Conditions: 72 hours
Description: We utilized an MTT assay to determine the potency of the compounds for inhibiting cell growth. […] We next asked whether T151742 induced inhibition of cell growth was dependent on ERO1α expression. As shown in FIG. 6C two ERO1α deleted clones in the PC-9 cell line were isolated. Using an MTT assay to determine overall cellar viability, a non-targeted control (scramble), and both ERO1α knockout clones was subjected to treatment with T151742 for 72 hours (See FIG. 6D). […] Though only slight differences were observed between T151742 and EN-460 we tested the effects of these compounds in a clonogenic assay which is a better test for inhibition of self-renewal.
Cell Lines: PC-9 cell line used was obtained from Sigma Aldrich and grown in RPMI 1640 medium with 10% fetal bovine serum and 1% penicillin/streptomycin. HCC4006, U266, MM1.s, and Beas-2B cell lines were obtained from ATCC and cultured in either RPMI 1640 or DMEM with 10% fetal bovine serum and 1% penicillin/streptomycin. All cell lines were also checked for mycoplasma every six months and subjected to short tandem repeat (STR) analysis for cell line validation. CRISPR Cas9: CRISPR Guide RNA 2 targeting ERO1α and CRISPR Guide RNA 4 were purchased from Genscript in the pLentiCRISPR V2 plasmid containing puromycin/ampicillin selection marker. Lentivirus was made from HEK 293T cells by co-transfection with GuideRNA of interest, pVSVG, and pPAX2 plasmids. Lentivirus was collected after 48 hours and concentrated using 40% PEG8000. […] Plate was then read on the BioTek Cytation 5 at 530/590 nm. […] Plate was then read at 570 nm. Treated wells were all compared to DMSO control wells to calculate percent growth inhibition and the IC50 was calculated using GraphPad (log(inhibitor) vs growth inhibition). […] Images were then quantified using ImageJ. […] Cells were aliquoted at 1 million cells per PCR tube in PBS and heated in Bio-Rad T100 thermal cycler at indicated temperatures (RT, 46° C., 48° C., 50° C., 52° C., 54° C., 56°, 58° C., and 60° C.) for 3 minutes and aggregation temperature was determined by western blot analysis. […]

CN(C)c1ccc(/C=C2\Oc3cc(O)ccc3C2=O)cc1 [Compound T151742]
IC50 (read-out: IC50, MTT assay, PC-9 ERO1α KO Clone 1): 32.2 ± 1.09 µM | IC50 (read-out: IC50, MTT assay, PC-9 ERO1α KO Clone 2): 41.5 ± 1.08 µM | fold more resistant, ERO1α deleted cells compared to the control cell line (MTT): 2-3 fold
